The source of these data is patent US20240132464A1, “HETEROCYCLIC COMPOUNDS AS E3 LIGASE INHIBITORS” (Accutar Biotechnology Inc., priority 2022, published 2024).

This assay addresses T1, GID4 (Uniprot ID: Q81VV7, residues 124-289) (Homo sapiens, UniProt Q8IVV7).
T1 construct: GID4 (Uniprot ID: Q81VV7, residues 124-289)
T1 sequence (Q8IVV7 124-289): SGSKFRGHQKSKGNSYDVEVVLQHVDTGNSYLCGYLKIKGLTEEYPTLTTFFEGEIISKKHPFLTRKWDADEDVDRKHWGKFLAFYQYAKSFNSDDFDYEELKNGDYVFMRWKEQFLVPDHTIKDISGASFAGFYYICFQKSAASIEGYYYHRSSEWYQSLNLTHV
The assay can be described thus: GID4 competitive binding assay (AlphaScreen, GID4/degron peptide PGLW). Particulars: 24 nM GID4, 48 nM biotinylated degron peptide PGLW, 4° C., read-out: IC50 (Inhibition of GID4/Degron binding by test compounds). The procedure: GID4 Competitive Binding Assay
GID4 binding affinity of compounds disclosed herein was measured by monitoring the interaction of GID4 with its degron peptide (PGLW) in the presence of the test compounds. A truncated version of GID4 (Uniprot ID: Q81VV7, residues 124-289) with a 6*His at its C-terminus was used in this assay. Tetrapeptide, PGLW, was synthesized and tagged with an additional lysine labeled with biotin at its sidechain.
GID4 competitive binding assays were performed in a 384-well plate at 4° C. in a 20 μL reaction volume. Briefly, 24 nM GID4 (final concentration) proteins were pre-incubated with 48 nM biotinylated degron peptide (final concentration) in an assay buffer containing 20 mM HEPES, pH 7.5, 100 mM NaCl, 1 mM DTT, 0.1% Tween-20, and 0.05% BSA in the presence of the test compound in 2% DMSO (final concentration) at various concentrations for 2 h. 5 ug/ml Streptavidin ALphaScreen donor beads and 5 ug/ml nickel chelate (Ni-NTA) ALphaScreen acceptor beads (PerkinElmer, 6760619C) (final concentrations) were then added to the mixture. After an incubation of 1 h at 4° C., the fluorescent signals were obtained on the EnVision® 2105 Multilabel Plate Reader (PerkinElmer).
Raw ALphaScreen data were converted to a percentage of inhibition (relative to DMSO) using the following equations: […]
For a given test compound concentration X:
Signal (X)=Signal (GID4 & peptide & compound)−Signal (GID4 & buffer & compound)
Percentage of inhibition at concentration X=[1−Signal(X)/Signal (DMSO)]*100% b)
The IC50 values were determined by nonlinear regression of plots of [inhibitor] vs. percentage of inhibition with variable slope.
Table 3 summarizes the inhibition of binding between GID4 and degron peptide with compounds of the present disclosure. Compounds were ranked into bins as follows for IC50: A indicates <500 nM; B indicates 500 nM-5000 nM; C indicates >5000 nM.
On the technique in general: Bead proximity is the source of the signal in Alpha formats.
Take `Cc1c(-c2ccc(Br)c([C@H]3CN(c4cc(N)nc(N)n4)CCN3)c2)cnn1C` (racemic) [Compound 5, (S/R)-6-(3-(2-bromo-5-(1,5-dimethyl-1H-pyrazol-4-yl)phenyl)piperazin-1-yl)pyrimidine-2,4-diamine]: the IC50 is below 500 nM.
To `Nc1cc(N2CCN[C@@H](c3cc(C(F)(F)F)ccc3Br)C2)nc(N)n1` (racemic) [Compound 12, (S/R)-6-(3-(2-bromo-5-(trifluoromethyl)phenyl)piperazin-1-yl)pyrimidine-2,4-diamine] belongs below 500 nM; to `CC(C)c1cc(N2CCN[C@@H](c3cc(C(F)(F)F)ccc3Br)C2)nc(N)n1` (racemic) [Compound 14, (S/R)-4-(3-(2-bromo-5-(trifluoromethyl)phenyl)piperazin-1-yl)-6-isopropylpyrimidin-2-amine], 500 to 5000 nM; to `CN1CCN(C(=O)c2ccc(Br)c([C@H]3CN(c4cc(N)nc(N)n4)CCN3)c2)CC1` (racemic) [Compound 16, (S/R)-(4-bromo-3-(4-(2,6-diaminopyrimidin-4-yl)piperazin-2-yl)phenyl)(4-methylpiperazin-1-yl)methanone], 500 to 5000 nM.
To `CC(C)c1cc(N2CCNC(c3cc(C(=O)NCCN(C)C)ccc3Br)C2)nc(N)n1` (racemic) [Compound 21, R or S-3-(4-(2-amino-6-isopropylpyrimidin-4-yl)piperazin-2-yl)-4-bromo-N-(2-(dimethylamino)ethyl)benzamide] belongs below 500 nM; to `Brc1ccccc1[C@H]1CN(c2ccnc3[nH]cnc23)CCN1` (racemic) [Compound 34, (S/R)-7-(3-(2-bromophenyl)piperazin-1-yl)-3H-imidazo[4,5-b]pyridine], above 5000 nM; to `Nc1nc(N2CCO[C@@H](c3ccccc3Br)C2)c2cc[nH]c2n1` (racemic) [Compound 40, (S/R)-4-(2-(2-bromophenyl)morpholino)-7H-pyrrolo[2,3-d]pyrimidin-2-amine], 500 to 5000 nM.
On to `Nc1nc(N2CCN[C@@H](c3ccccc3Br)C2)c2[nH]ccc2n1` (racemic) [Compound 43, (S/R)-4-(3-(2-bromophenyl)piperazin-1-yl)-5H-pyrrolo[3,2-d]pyrimidin-2-amine], for which the IC50 lay in the range of 500 to 5000 nM.
To `Nc1nc(NC2CC2)cc(N2CCN(CCO)[C@@H](c3ccccc3Br)C2)n1` (racemic) [Compound 45, (S/R)-2-(4-(2-amino-6-(cyclopropylamino)pyrimidin-4-yl)-2-(2-bromophenyl)piperazin-1-yl)ethan-1-ol] belongs below 500 nM.
To `Nc1nc(N2CCO[C@@H](c3ccccc3Br)C2)c2[nH]ccc2n1` (racemic) [Compound 47, (S/R)-4-(2-(2-bromophenyl)morpholino)-5H-pyrrolo[3,2-d]pyrimidin-2-amine] belongs 500 to 5000 nM; to `Nc1nc(N2CCN[C@@H](c3ccccc3Br)C2)c2cc[nH]c2n1` (racemic) [Compound 57, (S/R)-4-(3-(2-bromophenyl)piperazin-1-yl)-7H-pyrrolo[2,3-d]pyrimidin-2-amine], 500 to 5000 nM; to `CC(C)c1nc(N)cc(N2CCO[C@@H](c3ccccc3Br)C2)n1` (racemic) [Compound 72, (S/R)-6-(2-(2-bromophenyl)morpholino)-2-isopropylpyrimidin-4-amine], below 500 nM.
To `CC(C)c1nc(N)cc(N2CCN[C@@H](c3ccccc3Br)C2)n1` (racemic) [Compound 75, (S/R)-6-(3-(2-bromophenyl)piperazin-1-yl)-2-isopropylpyrimidin-4-amine] belongs 500 to 5000 nM; to `Nc1nc(NC2CC2)cc(N2CCO[C@@H](c3ccccc3)C2)n1` (racemic) [Compound 95, (S/R)-N4-cyclopropyl-6-(2-phenylmorpholino)pyrimidine-2,4-diamine], above 5000 nM; to `CN1CCN(c2cc(NCC3CC3)nc(N)n2)C[C@@H]1c1ccccc1Br` (racemic) [Compound 100, (S/R)-6-(3-(2-bromophenyl)-4-methylpiperazin-1-yl)-N4-(cyclopropylmethyl)pyrimidine-2,4-diamine], above 5000 nM.
`CC(C)c1cc(N2CCN(C)C(c3cnc4ccccn34)C2)nc(N)n1` (racemic) [Compound 106, (R/S)-4-(3-(imidazo[1,2-a]pyridin-3-yl)-4-methylpiperazin-1-yl)-6-isopropylpyrimidin-2-amine]: the IC50 is below 500 nM.
With `CNc1cc(N2CCO[C@@H](c3ccccc3)C2)nc(N)n1` (racemic) [Compound 109, (S/R)-N4-methyl-6-(2-phenylmorpholino)pyrimidine-2,4-diamine] the figure was 500 to 5000 nM; with `Nc1nc(NCC2CC2)cc(N2CCN[C@@H](c3ccccc3Br)C2)n1` (racemic) [Compound 112, (S/R)-6-(3-(2-bromophenyl)piperazin-1-yl)-N4-(cyclopropylmethyl)pyrimidine-2,4-diamine], below 500 nM.
In the case of `CNc1nc(N)cc(N2CCNC(c3ccccc3Br)C2)n1` (racemic) [Compound 114, (S/R)-6-(3-(2-bromophenyl)piperazin-1-yl)-N2-methylpyrimidine-2,4-diamine], the IC50 is below 500 nM.
To `Nc1cc(N2CCCC(c3cnc4ccccn34)C2)nc(N)n1` (racemic) [Compound 116, (R/S)-6-(3-(imidazo[1,2-a]pyridin-3-yl)piperidin-1-yl)pyrimidine-2,4-diamine] belongs 500 to 5000 nM.
With `CNc1nc(N)cc(N2CCCC(c3cnc4ccccn34)C2)n1` (racemic) [Compound 117, (S/R)-6-(3-(imidazo[1,2-a]pyridin-3-yl)piperidin-1-yl)-N2-methylpyrimidine-2,4-diamine] the figure was 500 to 5000 nM.
To `CNc1nc(N)cc(N2CCCC(c3cnc4ccccn34)C2)n1` (racemic) [Compound 118, (R/S)-6-(3-(imidazo[1,2-a]pyridin-3-yl)piperidin-1-yl)-N2-methylpyrimidine-2,4-diamine] belongs 500 to 5000 nM; to `Nc1cc(N2CCNC(c3cnc4ccccn34)C2)nc(N)n1` (racemic) [Compound 119, (S/R)-6-(3-(imidazo[1,2-a]pyridin-3-yl)piperazin-1-yl)pyrimidine-2,4-diamine], above 5000 nM; to `Nc1cc(N2CCNC(c3cnc4ccccn34)C2)nc(N)n1` (racemic) [Compound 120, (R/S)-6-(3-(imidazo[1,2-a]pyridin-3-yl)piperazin-1-yl)pyrimidine-2,4-diamine], 500 to 5000 nM.
On to `Nc1nc(NC2CC2)cc(N2CCN[C@@H](c3ccccc3Br)C2)n1` (racemic) [Compound 122, (S/R)-6-(3-(2-bromophenyl)piperazin-1-yl)-N4-cyclopropylpyrimidine-2,4-diamine], for which the IC50 was below 500 nM.
`CNc1cc(N2CCCC(c3cnc4ccccn34)C2)nc(NC)n1` (racemic) [Compound 123, (S/R)-6-(3-(imidazo[1,2-a]pyridin-3-yl)piperidin-1-yl)-N2,N4-dimethylpyrimidine-2,4-diamine]: the IC50 fell in the range of 500 to 5000 nM.
With `CNc1cc(N2CCCC(c3cnc4ccccn34)C2)nc(NC)n1` (racemic) [Compound 124, (R/S)-6-(3-(imidazo[1,2-a]pyridin-3-yl)piperidin-1-yl)-N2,N4-dimethylpyrimidine-2,4-diamine] the figure was 500 to 5000 nM; with `CNc1cc(N2CCN[C@@H](c3ccccc3)C2)nc(N)n1` (racemic) [Compound 129, (S/R)-N4-methyl-6-(3-phenylpiperazin-1-yl)pyrimidine-2,4-diamine], 500 to 5000 nM.
